Measurements taken from patent US9512175B2, “Macrocyclic inhibitors of flaviviridae viruses” (Gilead Sciences, Inc., priority 2012, dated 2016).
pIC50: −log10 of the molar value.

Experiments:
[1] = system: HCV replicon (Replicon 1a); assay: anti-HCV activity in Huh-7 cell line harboring a HCV replicon (Replicon 1a); assay type: cell-based; details: human hepatoma Huh-7 HCV replicon cells, 3 days, luciferase readout; for inhibition at 1 µM: Hepatitis C virus, Huh-7, 72 h, read-out: Replicon 1a % inhibition at 1 μM, 1 μM
cyclophilin A = cyclophilin A (Homo sapiens, UniProt P62937); assay: Cyclophilin A TR-FRET competitive binding assay; details: IC50 ranges; competition with CsA-Cy5 for His-tagged CypA, two-hour incubation; read-out: TR-FRET
Method: Cyclophilin A TR-FRET Competitive Binding Assay
Inhibitor potency was measured using a competitive binding assay with a time-resolved fluorescence resonance energy transfer (TR-FRET) readout. […] An IC50 value was calculated using a four-parameter logistic fit.

Chain of cyclophilin A (P62937 whole entry, species assumed): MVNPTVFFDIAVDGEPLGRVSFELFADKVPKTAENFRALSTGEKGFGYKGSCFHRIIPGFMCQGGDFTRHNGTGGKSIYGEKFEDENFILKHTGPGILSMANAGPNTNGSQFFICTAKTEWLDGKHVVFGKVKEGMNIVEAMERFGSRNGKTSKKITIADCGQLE

Structure (SMILES)	Replicon 1a % inhibition at 1 μM [1] [%]	pIC50 (cyclophilin A)	inhibition at 1 µM [1] [%]
COC1CCC=Cc2cccc(c2)C2CCCCN2C(=O)C2CCCN(N2)C(=O)C(C)NC(=O)C(C(C)C)NC(=O)C1C (single isomer, unassigned) [Compound 29]	28	5.00 to 6.00	–
COC1CCC=Cc2cccc(c2)C2CCCCN2C(=O)C2CCCN(N2)C(=O)C(C)NC(=O)C(C(C)C)NC(=O)C1C (single isomer, unassigned) [Compound 30]	73	> 7.00	–
CO[C@@H]1/C=C/c2cc3cc(ccc3cn2)[C@@H](C)OC(=O)[C@]2(C)CCCN(N2)C(=O)[C@H](C)NC(=O)[C@H](C(C)C)NC(=O)[C@@H]1C (single isomer, unassigned) [Compound 34]	–	> 7.00	92
CC(C)[C@@H]1NC(=O)C(C)(C)COc2cc3cc(ccc3cn2)[C@@H](C)OC(=O)[C@@H]2CCCN(N2)C(=O)[C@H](C)NC1=O (single isomer, unassigned) [Compound 68]	–	> 7.00	91
CC(C)[C@@H]1NC(=O)C(C)(C(C)O)/C=C/c2ccc3ccc(nc3c2)[C@@H](C)OC(=O)[C@@H]2CCCN(N2)C(=O)[C@H](C)NC1=O (single isomer, unassigned) [Compound 87]	–	> 7.00	–
COCCC1(C)/C=C/c2ccc3ccc(nc3c2)[C@@H](C)OC(=O)[C@@H]2CCCN(N2)C(=O)[C@H](C)NC(=O)[C@H](C(C)C)NC1=O (single isomer, unassigned) [Compound 102]	–	> 7.00	100
COCCC1(C)/C=C/c2ccc3ccc(nc3c2)[C@@H](C)OC(=O)[C@@H]2CCCN(N2)C(=O)[C@H](C)NC(=O)[C@H](C(C)C)NC1=O (single isomer, unassigned) [Compound 103]	–	> 7.00	100
CC(C)[C@@H]1NC(=O)C(C)(C)/C=C/c2ccc3ccc(nc3c2)[C@@H](C)OC(=O)[C@@H]2CCCN(N2)C(=O)[C@H](CC2CCOCC2)NC1=O (single isomer, unassigned) [Compound 112]	–	> 7.00	96
CC(C)[C@@H]1NC(=O)C(C)(C)/C=C/c2ccc3ccc(nc3c2)[C@@H](C)OC(=O)[C@@H]2CCCN(N2)C(=O)C(CC2CCOCC2)NC1=O (single isomer, unassigned) [Compound 113]	–	6.00 to 7.00	13
COC[C@@H]1NC(=O)[C@H](C(C)C)NC(=O)C(C)(C)/C=C/c2ccc3ccc(nc3c2)[C@@H](C)OC(=O)[C@@H]2CCCN(N2)C1=O (single isomer, unassigned) [Compound 117]	–	> 7.00	100
CC(C)[C@@H]1NC(=O)C(C)(C)/C=C/c2ccc3ccc(nc3c2)[C@H]2CCCN2C(=O)[C@@H]2CCCN(N2)C(=O)[C@H](C)NC1=O (single isomer, unassigned) [Compound 150]	–	> 7.00	95
CC(C)[C@@H]1NC(=O)C(C)(C)/C=C/c2ccc3ccc(nc3c2)[C@@H]2CCCN2C(=O)[C@@H]2CCCN(N2)C(=O)[C@H](C)NC1=O (single isomer, unassigned) [Compound 151]	–	5.00 to 6.00	0
CC(C)[C@@H]1NC(=O)[C@H](C)[C@H](O)CC/C=C/c2cccc(c2)[C@@H](C)NC(=O)[C@@H]2CCCN(N2)C(=O)[C@H](C)NC1=O [Compound 1, (E)-(2R,5S,11S,14S,17R,18R)-18-Hydroxy-14-isopropyl-2,11,17-trimethyl-3,9,12,15,28-pentaaza-tricyclo[21.3.1.1*5,9*]octacosa-1(26),21,23(27),24-tetraene-4,10,13,16-tetraone]	–	> 7.00	32
CC(C)[C@@H]1NC(=O)[C@H](C)[C@H](OCC(F)(F)F)CC/C=C/c2cccc(c2)[C@@H](C)NC(=O)[C@@H]2CCCN(N2)C(=O)[C@H](C)NC1=O [Compound 2, (E)-(2R,5S,11 S,14S,17R,18R)-14-Isopropyl-2,11,17-trimethyl-18-(2,2,2-trifluoro-ethoxy)-3,9,12,15,28-pentaaza-tricyclo[21.3.1.1*5,9*]octacosa-1(26),21,23(27),24-tetraene-4,10,13,16-tetraone]	–	6.00 to 7.00	63
CC(C)[C@@H]1NC(=O)[C@H](C)[C@H](O)CCCCc2cccc(c2)[C@@H](C)NC(=O)[C@@H]2CCCN(N2)C(=O)[C@H](C)NC1=O [Compound 3, (2R,5S,11S,14S,17R,18R)-18-Hydroxy-14-isopropyl-2,11,17-trimethyl-3,9,12,15,28-pentaaza-tricyclo[21.3.1.1*5,9*]octacosa-1(26),23(27),24-triene-4,10,13,16-tetraone]	–	> 7.00	44
CC(C)[C@@H]1NC(=O)CCC(C)(C)C/C=C/c2cccc(c2)[C@@H](C)NC(=O)[C@@H]2CCCN(N2)C(=O)[C@H](C)NC1=O [Compound 4]	–	6.00 to 7.00	58
CO[C@@H]1/C=C/c2cc3cc(ccc3cn2)[C@@H](C)NC(=O)[C@@H]2CCCN(N2)C(=O)[C@H](C)NC(=O)[C@H](C(C)C)NC(=O)[C@@H]1C [Compound 5]	–	> 7.00	80
CO[C@@H]1CCc2cc3cc(ccc3cn2)[C@@H](C)NC(=O)[C@@H]2CCCN(N2)C(=O)[C@H](C)NC(=O)[C@H](C(C)C)NC(=O)[C@@H]1C [Compound 6]	–	> 7.00	86
CC(C)[C@@H]1NC(=O)C/C=C/c2ccc3ncc(nc3c2)[C@@H](C)OC(=O)[C@@H]2CCCN(N2)C(=O)[C@H](C)NC1=O [Compound 7]	–	> 7.00	94
CC(C)[C@@H]1NC(=O)CCCc2cc3cc(ccc3cn2)[C@@H](C)OC(=O)[C@@H]2CCCN(N2)C(=O)[C@H](C)NC1=O [Compound 10]	–	–	28
CC(C)[C@@H]1NC(=O)C/C=C/c2cc3cc(ccc3cn2)[C@@H](C)NC(=O)[C@@H]2CCCN(N2)C(=O)[C@H](C)NC1=O [Compound 11]	–	> 7.00	6

Structure (SMILES)	Replicon 1a % inhibition at 1 μM [1] [%]	pIC50 (cyclophilin A)	inhibition at 1 µM [1] [%]
CC(C)[C@@H]1NC(=O)/C=C\c2cc3cc(ccc3cn2)[C@@H](C)NC(=O)[C@@H]2CCCN(N2)C(=O)[C@H](C)NC1=O [Compound 12]	–	–	0
CC(C)[C@@H]1NC(=O)C/C=C/c2ccc3ccc(nc3c2)[C@@H](C)OC(=O)[C@@H]2CCCN(N2)C(=O)[C@H](C)NC1=O [Compound 24]	–	–	99
CC(C)[C@@H]1NC(=O)[C@@H]([C@H](C)O)/C=C/c2ccc3ccc(nc3c2)[C@@H](C)OC(=O)[C@@H]2CCCN(N2)C(=O)[C@H](C)NC1=O [Compound 31]	–	–	98
C[C@@H]1NC(=O)[C@H](CCN=[N+]=[N-])NC(=O)C(C)(C)/C=C/c2cc3cc(ccc3cn2)[C@@H](C)OC(=O)[C@@H]2CCCN(N2)C1=O [Compound 49]	–	> 7.00	–
C#CC[C@@H]1NC(=O)C(C)(C)/C=C/c2cc3cc(ccc3cn2)[C@@H](C)OC(=O)[C@@H]2CCCN(N2)C(=O)[C@H](C)NC1=O [Compound 51]	–	> 7.00	–
CC(C)[C@@H]1NC(=O)C2(/C=C/c3cc4cc(ccc4cn3)[C@@H](C)OC(=O)[C@@H]3CCCN(N3)C(=O)[C@H](C)NC1=O)CC2 [Compound 58]	–	> 7.00	–
CC(C)[C@@H]1NC(=O)C2(/C=C/c3cc4cc(ccc4cn3)[C@@H](C)OC(=O)[C@@H]3CCCN(N3)C(=O)[C@H](C)NC1=O)CCOCC2 [Compound 59]	–	> 7.00	–
CC(C)[C@@H]1NC(=O)CCC/C=C/c2cc3cc(ccc3cn2)[C@@H](C)OC(=O)[C@@H]2CCCN(N2)C(=O)[C@H](C)NC1=O [Compound 61]	–	–	72
CC(C)[C@@H]1NC(=O)CCCC/C=C/c2cc3cc(ccc3cn2)[C@@H](C)OC(=O)[C@@H]2CCCN(N2)C(=O)[C@H](C)NC1=O [Compound 63]	–	–	80
CC(C)[C@@H]1NC(=O)C(C)(C)/C=C/c2cc3cc(cnc3cn2)[C@@H](C)OC(=O)[C@@H]2CCCN(N2)C(=O)[C@H](C)NC1=O [Compound 66]	–	> 7.00	–
CC(C)[C@@H]1NC(=O)CCCc2ccc3ccc(cc3c2)[C@@H](C)OC(=O)[C@@H]2CCCN(N2)C(=O)[C@H](C)NC1=O [Compound 71]	–	6.00 to 7.00	–
CC(C)[C@@H]1NC(=O)C(C)(C)CCc2cc3cc(ccc3cn2)[C@@H](C)OC(=O)[C@@H]2CCCN(N2)C(=O)[C@H](C)NC1=O [Compound 74]	–	–	95
CC(C)[C@@H]1NC(=O)C2(/C=C/c3ccc4ccc(nc4c3)[C@@H](C)OC(=O)[C@@H]3CCCN(N3)C(=O)[C@H](C)NC1=O)COC(C)(C)OC2 [Compound 75]	–	> 7.00	–
CC(C)[C@@H]1NC(=O)C(C)(C2CCOC2)/C=C/c2ccc3ccc(nc3c2)[C@@H](C)OC(=O)[C@@H]2CCCN(N2)C(=O)[C@H](C)NC1=O (stereo partly drawn) [Compound 116]	–	> 7.00	–
CC(C)[C@@H]1NC(=O)C2(/C=C/c3ccc4ccc(nc4c3)[C@@H](C)OC(=O)[C@@H]3CCCN(N3)C(=O)[C@H](C)NC1=O)CCC(F)(F)CC2 [Compound 121]	–	> 7.00	–
CC(C)[C@@H]1NC(=O)C2(/C=C/c3ccc4ccc(nc4c3)[C@@H](C)OC(=O)[C@@H]3CCCN(N3)C(=O)[C@H](C)NC1=O)CCN(Cc1ccccc1)CC2 [Compound 128]	–	> 7.00	–
COc1cc2nc3cc(ccc13)/C=C/C(C)(C)C(=O)N[C@@H](C(C)C)C(=O)N[C@@H](C)C(=O)N1CCC[C@H](N1)C(=O)O[C@@H]2C [Compound 139]	–	> 7.00	–
CC(C)[C@@H]1NC(=O)C(C)(C)/C=C/c2ccc3c(C#N)cc(nc3c2)[C@@H](C)OC(=O)[C@@H]2CCCN(N2)C(=O)[C@H](C)NC1=O [Compound 140]	–	6.00 to 7.00	–
CC(C)[C@@H]1NC(=O)C([C@H](C)O)/C=C/c2ccc3ccc(cc3c2)[C@@H](C)OC(=O)[C@@H]2CCCN(N2)C(=O)[C@@H](C)NC1=O (stereo partly drawn) [Compound 145]	–	> 7.00	–
Cc1c2ccc3c(Cl)cc(nc13)[C@@H](C)OC(=O)[C@@H]1CCCN(N1)C(=O)[C@H](C)NC(=O)[C@H](C(C)C)NC(=O)C(C)(C)/C=C/2 [Compound 164]	–	> 7.00	–
